Source: patent US5587390A, “Imidazole derivatives having a II antagonist activity” (Istituto Luso Farmaco D'Italia S.p.A., priority 1992, dated 1996)

What was measured:
A II receptor = test: receptor binding test: displacement of 125I-Sar1-Ile8-AT II or [H3] AT II in the rat adrenal cortex
Excerpt: The compounds described in the present invention act as antagonists at the A II receptor level.
(§1) For the characterization and the evaluation of the effectiveness of the compounds of the invention, in vitro tests (such as the inhibition of the A II-induced contraction in the rabbit aorta and the displacement of ^125 I-Sar^1 -Ile^8 -AT II or [H^3 ] AT II in the rat adrenal cortex) and an in vivo test (the inhibition of the A II-induced pressory response in the ganglio-blocked normotensive rat) were selected.

[1] = system: A II-induced pressory response; test: inhibition of the A II-induced pressory response in the ganglio-blocked normotensive rat (in vivo); settings: iv
Excerpt: as §1

[2] = target: T1, A II-induced contraction in the rabbit aorta (Oryctolagus cuniculus, UniProt P34976); test: inhibition of the A II-induced contraction in the rabbit aorta (in vitro); assay type: cell-based; settings: read-out: pA2 (converted)
T1 construct: A II-induced contraction in the rabbit aorta; from tissue; host or cells: rabbit aorta
T1 sequence (P34976 1-359): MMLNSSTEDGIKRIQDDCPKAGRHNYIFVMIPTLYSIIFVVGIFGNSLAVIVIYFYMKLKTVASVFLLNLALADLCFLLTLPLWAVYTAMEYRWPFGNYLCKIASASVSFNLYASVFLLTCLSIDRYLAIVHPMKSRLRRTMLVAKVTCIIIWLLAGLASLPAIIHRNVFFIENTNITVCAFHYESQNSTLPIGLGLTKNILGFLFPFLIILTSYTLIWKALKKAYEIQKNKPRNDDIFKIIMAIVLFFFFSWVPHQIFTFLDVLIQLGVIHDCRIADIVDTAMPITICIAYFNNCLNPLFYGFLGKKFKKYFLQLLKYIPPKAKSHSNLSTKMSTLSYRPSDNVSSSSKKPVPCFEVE
Excerpt: as §1

Ki (A II receptor) [nM] | Kb [2] [nM] | Compound | ED50 [1] [mg/kg]
6.5 | – | CCCCc1nc(-c2cccc[n+]2[O-])cn1Cc1ccc(-c2ccccc2-c2nn[nH]n2)cc1 [Example 10e, 2-butyl-4-(pyridin-2-yl-N-oxide)-1-[[2'-(tetrazol-5-yl)biphenyl-4-yl]methyl]-1H-imidazole] | 0.54
– | 10 | CCCCc1nc(-c2ccccc2C(=O)O)cn1Cc1ccc(-c2ccccc2-c2nnn[nH]2)cc1 [Example 10, 2-Butyl-4-(2-carboxyphenyl)-1-[[2'-(tetrazol-5-yl) -biphenyl-4-yl]methyl]-1H-imidazole] | 0.52
